# Where two headings read alike, the source gives them in different places.
# Experiments:
# Assay type in all cases: cell-based
# [1] = system: Escherichia coli (ATCC 25922); test: Antimicrobial activity (MBC), E. coli ATCC 25922
# Protocol: (§1) To determine antimicrobial activity, Escherichia coli (ATCC 25922), Staphylococcus aureus (ATCC 29213), Pseudomonas aeruginosa (ATCC 27853), and Candida albicans (ATCC 10231) were used in primary screening. In addition, Escherichia coli (MCC 80392), Staphylococcus aureus (MCC 91731), Pseudomonas aeruginosa (MCC 4438), and Candida albicans (MCC 50319), provided by Alcon Laboratories, Fort Worth, Tex., were used. The microbial cultures were diluted in sterile saline pH 4 to prepare inocula. Test compounds were titrated by stepwise two-fold dilutions in sterile saline pH 4. A total of 1.0×10^5 to 1.0×10^6 Colony Forming Units (CFU)/mL microbe was added to each tube, mixed by gentle vortexing, and then incubated at room temperature for 1 h. Microbial plating on Petri dishes (Tryptic Soy agar or Saboraud's Dextrose agar) was performed immediately after the designated exposure after neutralization of the test article dilutions in Dey-Engley Broth. Plates were incubated at 37° C., and the numbers of microbes were counted by direct colony count to quantitate the surviving microbes as CFU/mL. Positive growth controls were made with sterile 0.9% saline. Compounds were dissolved in unbuffered isotonic saline (SAL) or phosphate buffered saline (PBS) at pH 4 or pH 7 (using HCl and/or NaOH as needed). All compounds were tested three times. The results are tabulated to show the comparison of antimicrobial effectiveness range of the compounds.
# (§2) Data shown are the Minimum Bactericidal Concentration (MBC) or Minimum Fungicidal Concentration (MFC) (≧99.9% kill) in μg/mL.
# [2] = system: Pseudomonas aeruginosa (MCC 4438); test: Antimicrobial activity (MBC), P. aeruginosa MCC 4438; conditions: 1 h exposure at room temperature
# Protocol: as §1, §2
# [3] = system: mouse fibroblast cells (ATCC CCL-1, L929); test: Cytotoxicity, WST-8 colorimetric assay; conditions: 60 min exposure
# Protocol: Cytotoxicity was assessed by a colorimetric assay system using the Dojindo™ cell counting kit containing 2-(2-methoxy-4-nitrophenyl)-3-(4-nitrophenyl)-5-(2,4-disulfophenyl)-2H-tetrazolium, monosodium salt (WST-8). In this assay, the WST-8 reagent was bioreduced by cellular dehydrogenases to a formazan product that is highly soluble in tissue culture medium.
# In a standard assay, mouse fibroblast cells (ATCC CCL-1, L929), were cultured in Minimum Essential Medium, α-medium supplemented with 10% heat inactivated fetal bovine serum, L-glutamine, penicillin and streptomycin. Cells were trypsinized and counted under the microscope and seeded at 1.5×10^4 total cells per 100 μL per well of a flat-bottom 96-well plate in order to achieve ˜80% confluence after overnight incubation at 37° C. On the day of the assay, the tissue culture medium was removed and replaced with 30 μL of fresh medium.
# Test articles were prepared as 2-fold serial dilutions and 170 μL of each dilution is added into each of 4-wells (total volume per well=200 μL). The test plate was then returned to the 37° C. incubator for 60 min. Immediately after the exposed time, test article from each well was replaced with 200 μL of fresh media. Plates were incubated at 37° C. for 18-20 hours. The following day growth medium was replaced with 100 μL/well of fresh medium containing 10 μL WST-8 reagent. Cells were incubated under growth conditions (5% CO2 at 37° C. humidified incubator), protected from light, until color development was achieved (usually 1-4 hours). Absorbance was read at 450 nm with reference wavelength at 750 nm using Molecular Device SpectraMax M5 plate reader. Untreated or vehicle only treated cells receiving WST-8 reagent served as positive cell proliferation controls.
# The absorbance A450/750 from each well of untreated cells and from each well within the dilution series was measured. […] Next, a non-linear regression (curve fit) analysis was performed on all the absorbance data measured from the dilution series, including the absorbance data obtained from wells of the untreated control cells. For each dilution within the dilution series, an average A450/750 was calculated from the four replicate wells.
# [4] = system: Staphylococcus aureus (ATCC 29213); test: Antimicrobial activity (MBC), S. aureus ATCC 29213
# Protocol: as §1, §2
# [5] = system: Candida albicans (ATCC 10231); test: Antimicrobial activity (MFC), C. albicans ATCC 10231
# Protocol: as §1, §2
# [6] = system: Staphylococcus aureus (MCC 91731); test: Antimicrobial activity (MBC), S. aureus MCC 91731; conditions: 1 h exposure at room temperature
# Protocol: as §1, §2
# [7] = system: Escherichia coli (MCC 80392); test: Antimicrobial activity (MBC), E. coli MCC 80392; conditions: 1 h exposure at room temperature
# Protocol: as §1, §2
# [8] = system: Candida albicans (MCC 50319); test: Antimicrobial activity (MFC), C. albicans MCC 50319; conditions: 1 h exposure at room temperature
# Protocol: as §1, §2
# [9] = ATCC25922, E. coli ATCC 25922, pH 4 (Sal), 1 h exposure at room temperature, read-out: Minimum Bactericidal Concentration (MBC) (≧99.9% kill)
# [10] = ATCC29213, S. aureus ATCC 29213, pH 4 (Sal), 1 h exposure at room temperature, read-out: Minimum Bactericidal Concentration (MBC) (≧99.9% kill)
# [11] = ATCC10231, C. albicans ATCC 10231, pH 4 (Sal), 1 h exposure at room temperature, read-out: Minimum Fungicidal Concentration (MFC) (≧99.9% kill)
SMILES,"MBC [1, 9]",Minimum Bactericidal Concentration (MBC) (≧99.9% kill) ([2]; pH 4 (Sal)),Minimum Bactericidal Concentration (MBC) (≧99.9% kill) ([2]; pH 7 (PBS)),CT50 (concentration that results in survival of 50% of the cells) ([3]; pH 4 (Sal)),"MBC [4, 10]","MFC [5, 11]",Minimum Bactericidal Concentration (MBC) (≧99.9% kill) ([6]; pH 4 (Sal)),Minimum Bactericidal Concentration (MBC) (≧99.9% kill) ([6]; pH 7 (PBS)),Minimum Bactericidal Concentration (MBC) (≧99.9% kill) ([7]; pH 4 (Sal)),Minimum Bactericidal Concentration (MBC) (≧99.9% kill) ([7]; pH 7 (PBS)),Minimum Fungicidal Concentration (MFC) (≧99.9% kill) ([8]; pH 4 (Sal)),Minimum Fungicidal Concentration (MFC) (≧99.9% kill) ([8]; pH 7 (PBS)),"MBC ([1]; ATCC25922, 1 h, pH 4, read-out: Minimum Bactericidal Concentration (MBC) (≧99.9% kill))",CT50 (concentration that results in survival of 50% of the cells) ([3]; pH 7 (PBS)),"MBC ([4]; ATCC29213, 1 h, pH 4, read-out: Minimum Bactericidal Concentration (MBC) (≧99.9% kill))","MFC ([5]; ATCC10231, 1 h, pH 4, read-out: Minimum Fungicidal Concentration (MFC) (≧99.9% kill))","MBC ([1]; ATCC25922, E. coli ATCC 25922, pH 7 (PBS), 1 h exposure at room temperature, read-out: Minimum Bactericidal Concentration (MBC) (≧99.9% kill))","MBC ([4]; ATCC29213, S. aureus ATCC 29213, pH 7 (PBS), 1 h exposure at room temperature, read-out: Minimum Bactericidal Concentration (MBC) (≧99.9% kill))","MFC ([5]; ATCC10231, C. albicans ATCC 10231, pH 7 (PBS), 1 h exposure at room temperature, read-out: Minimum Fungicidal Concentration (MFC) (≧99.9% kill))"
"CC(C)(CC[N+]1(C)CCCCC1)N(Cl)Cl.[Cl-] [Compound 21-80, 1-(3-(Dichloroamino)-3-methylbutyl)-1-methylpiperidinium chloride]",2 µg/mL,4 µg/mL,>256 µg/mL,0.9 mM,4 µg/mL,32 µg/mL,4 µg/mL,>256 µg/mL,4 µg/mL,256 µg/mL,64 µg/mL,>512 µg/mL,,,,,,,
"CC(C)(C[N+](C)(C)C)N(Cl)Cl [Compound 21-30, 2-(Dichloroamino)-N,N,N-2-tetramethylpropan-1-ammonium chloride]",,,,0.5 mM,,,8 µg/mL,512 µg/mL,16 µg/mL,512 µg/mL,256 µg/mL,>2048 µg/mL,16 µg/mL,0.5 mM,8 µg/mL,128 µg/mL,,,
"CC[N+](C)(CC)CCC(C)(C)N(Cl)Cl.[Cl-] [Compound 21-114, 3-(Dichloroamino)-N,N-diethyl-N-3-dimethylbutan-1-ammonium chloride]",8 µg/mL,4 µg/mL,1024 µg/mL,1.3 mM,2 µg/mL,16 µg/mL,4 µg/mL,512 µg/mL,2 µg/mL,512 µg/mL,,,,,,,,,
"CC(C)(CC[N+](C)(C)C)N(Cl)Cl.[Cl-] [Compound 21-32, 3-(Dichloroamino)-N,N,N-3-tetramethylbutan-1-ammonium chloride]",2 µg/mL,,512 µg/mL,1.7 mM,2 µg/mL,64 µg/mL,1 µg/mL,256 µg/mL,8 µg/mL,256 µg/mL,32 µg/mL,>1024 µg/mL,,1.8 mM,,,128 µg/mL,512 µg/mL,> 4100 µg/mL
